Results taken from US20070292888A1, “Methods for Measuring Enzyme Activities in Cells, Blood, Tumors and Tissues” (GEN-PATH PHARMACEUTICALS, INC., priority 2004, published 2007).

Experiments:
[1] = biological target: T1, TK (Homo sapiens, UniProt P29401); experiment: Thiamine competition and washout time course of TK inhibition in cells; type: cell-based; design: endogenous in cells; host or cells: HCT116; conditions: HCT116 cells, TDM, thiamine 0-12 μM, 48 hours; 12 μM thiamine overcomes inhibition
T1 sequence (P29401 1-623): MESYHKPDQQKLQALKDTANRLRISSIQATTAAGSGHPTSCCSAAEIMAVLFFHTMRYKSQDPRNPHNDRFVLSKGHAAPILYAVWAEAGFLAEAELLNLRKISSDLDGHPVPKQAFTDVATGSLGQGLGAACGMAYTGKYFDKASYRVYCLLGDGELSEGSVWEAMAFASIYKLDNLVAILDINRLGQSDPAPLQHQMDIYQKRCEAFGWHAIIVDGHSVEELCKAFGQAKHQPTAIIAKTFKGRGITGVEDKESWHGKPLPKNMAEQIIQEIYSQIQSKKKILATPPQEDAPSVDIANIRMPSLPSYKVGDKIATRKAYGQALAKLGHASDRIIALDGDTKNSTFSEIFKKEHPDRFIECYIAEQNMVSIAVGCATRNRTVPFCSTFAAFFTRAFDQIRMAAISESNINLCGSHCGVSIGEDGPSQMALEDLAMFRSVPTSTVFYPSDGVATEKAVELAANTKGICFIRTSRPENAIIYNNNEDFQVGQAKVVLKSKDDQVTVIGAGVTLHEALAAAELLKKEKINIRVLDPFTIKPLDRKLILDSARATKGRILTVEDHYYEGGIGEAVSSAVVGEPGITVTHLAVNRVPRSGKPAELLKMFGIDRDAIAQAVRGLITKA
Protocol: HCT116 cells were plated in clear-bottomed 96-well culture plates, at a density of 8000 cells/well in TDM. The following morning, N3PT and different amounts of thiamine (12 μM, 2.4 μM, 0.48 μM, 0.096 μM, 0.0192 μM, 0 μM) were added to the cells. Forty-eight hours later, plates were inverted to remove media and blotted on paper towels to remove residual media. Plates were immediately assayed for enzymatic TK activity. 80 μl of lysis buffer was added to each well, and the cells incubated at RT for 10 min to allow cell lysis. After lysis, 20 μl of the aforementioned 5× reaction mix was added to each well to initiate the reaction. Reactions were monitored as described above.
Cells were plated in TDM media 24 hours earlier, different concentration of N3PT and 100 nM thiamine were added to the cells and treated for 48 hour to allow N3PT to exert its inhibitory effect (day 2; d2). The media was then changed to contain only 100 nM thiamine and one plate was assayed every day for the next five days (d3 to d7).

[2] = biological target: T1, TK; experiment: Cell-based TK inhibition in thiamine-depleted media, 96-well format; design: endogenous in cells; conditions: treated cells, 48 hours treatment
Protocol: We determined the IC50 of compounds that inhibit the activity of the TPP utilizing enzymes TK, kGDH and PDH in a convenient 96-well format using an optimized version of the method described in the previous Examples.
The high thiamine levels in conventional cell culture media (e.g., DMEM (12 μM), RPMI (3 μM)) masks the inhibitory effect of such inhibitors. To measure the IC50 of such inhibitors, thus, a thiamine depleted DMEM, containing all the ingredients of normal DMEM except for thiamine (HyClone, custom order), was used. Thiamine-depleted media (TDM) is made up with thiamine-depleted DMEM, 10% FBS, which contains negligible amount of thiamine (estimated to be ˜3-5% nM) and 1% Penicillin-streptomycin.
Log-phase growing cells were trypsinized and resuspended in TDM. Optimization of the initial cell counts is recommended for each cell line to ensure that enzyme activity can be observed at the beginning and that healthy growth can continue. For cell lines that have a doubling time of approximately 24 hours and cellular transketolase levels high enough to be reliably detected with five thousand (5K) cells such as HCT116 and HT1080, 8K cells are recommended.
Media containing 8K cells (95 μl) were used to seed individual wells in a 96-well clear-bottom cell cultured treated sterile plate. […] Enzymatic inhibition was expressed as percent of control wells that were not treated with compounds. […]

IC50 [2]: 20 nM
SMILES: Cc1ccc(C[n+]2csc(CCO)c2C)c(N)n1 [N3PT, 3-[(2-amino-6-methyl-3-pyridinyl)methyl]-5-(2-hydroxyethyl)-4-methyl thiazolium]
Inhibition of TK in the presence of increased concentrations of thiamine [1]: reduced by thiamine in a concentration dependent manner
